Here are results for five compounds from patent US20020016279A1, “Enzymatic oxidation composition and process” (Unilever Home & Personal Care USA, Division of Conopco, Inc., priority 2000, published 2002).

SMILES strings stand for the structures. Structures can show the parent of a compound that is named as a salt.

The nature of this assay: Stain bleach performance of the peroxidase/enhancer system on tomato stains (wash test, no hydrogen peroxide added). As for the experimental part: The potential of the enzymatic bleach system, consisting of a peroxidase enzyme and an enhancer, to bleach stains was assessed by washing cotton swatches soiled with tomato stains. The experiments were performed in 1 l beakers, to which 800 ml of wash solution were added. […]
The swatches were washed during 30 minutes at 30° C. After the wash, the swatches were tumble-dried and the reflectance spectra were measured using a Minolta spectrometer. The color differences between the swatch before and after the wash data were expressed in the CIELAB L*a*b* color space. In this color space, L* indicates lightness and a* and b* are the chromaticity coordinates. Color differences between two swatches are expressed as ΔE, which is calculated from the following equation:
ΔE={square root}{square root over (ΔL^2+Δa^2+Δb^2)}

[1] abbreviates: cotton swatches soiled with tomato stains, enhancer 250 μM, peroxidase from Arthromyces ramosus 50 μg/l, wash solution 2 g/l, pH 10.5, 30 minutes at 30° C, no enhancer: 6.5.

On to `O=C(NNc1ccccc1)c1ccccc1` [2′-phenylbenzohydrazide], for which the ΔE under setting [1] worked out at 7.4.

On to `Nc1ccc(S(=O)(=O)NNC(=O)C(=O)NNc2ccccc2)cc1` [Ethanedioic acid, 2-[(4-aminophenyl)sulfonyl]-hydrazide-2-phenylhydrazide], for which the ΔE (Example 2, enhancer 50 μM, peroxidase 5 mg/l, tomato stains, peroxidase without enhancer 7.7) is 8.3; the ΔE (Example 2, enhancer 100 μM, peroxidase 5 mg/l, tomato stains, peroxidase without enhancer 7.7) was 9.0; the ΔE (Example 2, enhancer 200 μM, peroxidase 5 mg/l, tomato stains, peroxidase without enhancer 7.7) worked out at 9.6; the ΔE (Example 2, enhancer 200 μM, peroxidase None, tomato stains, None/None control 7.5) is recorded as 7.4; the ΔE under setting [1] is 8.1.

For the compound `CCOC(=O)C(=O)NNc1cccc(Cl)c1` [Ethyl [2-(3-chlorophenyl)]hydrazide oxalate], under setting [1], the ΔE worked out at 7.8.

On to `COC(=O)C(=O)NNc1ccccc1` [Methyl [2-phenyl]hydrazide oxalate], for which, under setting [1], the ΔE is on record as 9.8.

Consider `CCCOC(=O)C(=O)NNc1ccccc1` [Propyl [2-phenyl]hydrazide oxalate], for which the ΔE under setting [1] was 9.8.
